The results in this text go back to patent US20250368624A1, “M24B AMINOPEPTIDASE INHIBITORS FOR CARD8 INFLAMMASOME ACTIVATION” (Memorial Sloan-Kettering Cancer Center, priority 2022, published 2025).

One data set addresses recombinant human PEPD (Homo sapiens (Human), UniProt P12955). Nature of the data set: PEPD substrate assay (Ala-Pro cleavage, L-alanine assay kit). It counts as biochemical. Conditions: for IC50: 50 nM recombinant human PEPD, Ala-Pro 40 μM, 25° C.
For another data set, the target named is XPNPEP1 (Homo sapiens (Human), UniProt Q9NQW7). Nature of the data set: XPNPEP1 substrate assay (H-Lys(abz)-Pro-Pro-pNA). The note with it: for IC50: XPNPEP1 3.5 nM, substrate 100 μM, 60 mins. The format is biochemical.
Chain of XPNPEP1 (Q9NQW7 whole entry): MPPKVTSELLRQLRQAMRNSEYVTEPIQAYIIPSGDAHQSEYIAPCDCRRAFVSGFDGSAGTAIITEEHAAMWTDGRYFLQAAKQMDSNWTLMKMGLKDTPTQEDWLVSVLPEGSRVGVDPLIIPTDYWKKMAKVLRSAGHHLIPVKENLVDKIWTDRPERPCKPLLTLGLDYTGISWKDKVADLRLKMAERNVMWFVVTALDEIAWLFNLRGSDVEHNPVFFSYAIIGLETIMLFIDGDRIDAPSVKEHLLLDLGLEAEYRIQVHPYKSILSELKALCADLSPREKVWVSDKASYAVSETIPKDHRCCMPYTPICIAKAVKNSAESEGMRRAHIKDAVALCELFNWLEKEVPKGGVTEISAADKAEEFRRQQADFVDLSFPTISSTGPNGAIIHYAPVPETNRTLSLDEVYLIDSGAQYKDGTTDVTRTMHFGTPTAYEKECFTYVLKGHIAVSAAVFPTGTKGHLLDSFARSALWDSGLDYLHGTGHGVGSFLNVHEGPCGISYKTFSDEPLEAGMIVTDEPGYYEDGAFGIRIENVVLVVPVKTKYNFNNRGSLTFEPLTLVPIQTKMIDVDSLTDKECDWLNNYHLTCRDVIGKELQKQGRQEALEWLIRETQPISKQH
For another data set, the system named is OCI-AML2 cells. Nature of the data set: Propidium iodide uptake, OCI-AML2 cells. It counts as cell-based. The note with it: 6.25 μM, compared to CQ31. On the procedure: Propidium iodideflux analysis. 2×10^4 MV4;11 or OCI-AML2 cells were plated in 384-well, black, clear-bottom plate (Corning) in RPMI medium. Cells were then treated as indicated and propidium iodide (PI) was added at a final concentration of 10 μM. PI fluorescence was measured at (Ex/Em: 535/617 nm) recorded at 37° C. every 5 mins in a Cytation 5 Cell Imaging Multi-Mode Reader (BioTek). The obtained measurements were baseline corrected to vehicle/DMSO and normalized to maximum response.

In the next data set the test system is N/TERT-1 keratinocytes. Nature of the data set: Cell viability of N/TERT-1 keratinocytes (NLRP1 inflammasome). It counts as cell-based, human. The note with it: VbP 10 μM, CQ compounds 20 μM, 24 h, CTG. How it is done: Cell Culture. HEK293T, THP-1, RAW264.7 cells were purchased from ATCC. MV4;11, OCI-AML2 cells were purchased from DSMZ. N/TERT1 cells were a gift from the Rheinwald Lab (Dickson et al., 2000). HEK293T and RAW264.7 cells were grown in Dulbecco's Modified Eagle's Medium (DMEM) with L-glutamine and 10% fetal bovine serum (FBS). N/TERT1 cells were grown in Keratinocyte serum free medium (KSFM) supplemented with 1× penicillin/streptomycin, bovine pituitary extract (25 μg/ml) and epidermal growth factor (EGF) (0.2 ng/ml). All other cell lines were grown in Roswell Park Memorial Institute (RPMI) medium 1640 with L-glutamine and 10% fetal bovine serum (FBS). All cells were grown at 37° C. in a 5% CO2 atmosphere incubator. Cell lines were regularly tested for mycoplasma using the MycoAlert™ Mycoplasma Detection Kit (Lonza).
CellTiter-Glo cell viability and CytoTox-Fluor cell death assays. Cells were plated (2,000 cells per well) in white, 384-well clear-bottom plates (Corning) using an EL406 Microplate Washer/Dispenser (BioTek) in 25 μL final volume of medium. To the cell plates were added compounds at different concentrations using a pintool (CyBio) and the plates were allowed to incubate in the incubator. After incubation for indicated times, CytoTox-Fluor reagent (Promega, G9262) was added according to the manufacturer's protocol. The assay plates were then incubated for another 30 min before fluorescence was recorded using a Cytation 5 Cell Imaging Multi-Mode Reader (BioTek). Next, CellTiter-Glo reagent (Promega, G7573) was subsequently added to the assay plates following the manufacturer's protocol. Assay plates were shaken on an orbital shaker for 2 min and incubated at 25° C. for 10 min. Luminescence was then read using a Cytation 5 Cell Imaging Multi-Mode Reader (BioTek).

Data set [1] can be described thus: De-esterification in cell culture. The note with it: after 24 h. The format is in vitro ADME.

Molecules are shown by their SMILES.

Chain of recombinant human PEPD (P12955 whole entry): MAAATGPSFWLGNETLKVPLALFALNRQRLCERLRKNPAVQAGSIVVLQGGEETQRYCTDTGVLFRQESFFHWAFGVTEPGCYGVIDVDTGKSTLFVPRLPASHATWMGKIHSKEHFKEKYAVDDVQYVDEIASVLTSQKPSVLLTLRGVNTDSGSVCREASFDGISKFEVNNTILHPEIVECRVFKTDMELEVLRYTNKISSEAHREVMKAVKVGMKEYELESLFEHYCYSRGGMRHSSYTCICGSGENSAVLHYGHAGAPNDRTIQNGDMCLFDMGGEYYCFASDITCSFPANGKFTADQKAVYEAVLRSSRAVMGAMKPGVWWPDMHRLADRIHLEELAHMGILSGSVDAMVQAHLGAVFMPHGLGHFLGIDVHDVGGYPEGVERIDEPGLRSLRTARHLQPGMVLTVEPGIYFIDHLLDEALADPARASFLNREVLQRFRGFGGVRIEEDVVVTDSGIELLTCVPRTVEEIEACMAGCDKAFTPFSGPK

`COC(=O)[C@H](CC(C)C)NC(=O)[C@@H]1CCCN1C(=O)[C@@H](O)[C@H](N)CC(C)C` [CQ80, Methyl ((2S,3R)-3-amino-2-hydroxy-5-methylhexanoyl)-L-prolyl-L-leucinate]: the IC50 (usually the point on the concentration scale where inhibition reaches its midpoint) was 0.91 µM on recombinant human PEPD and 43 µM at XPNPEP1. In addition, in the data set on OCI-AML2 cells, the “lytic cell death by uptake of propidium iodide” value is on record as “more rapid lytic cell death”. Besides, in the data set on N/TERT-1 keratinocytes, the “cell death in N/TERT-1 keratinocytes” value was “Only VbP induced cell death”.

Take `COC(=O)[C@@H]1CCCN1C(=O)[C@@H](O)[C@H](N)CC(C)C` [CQ31]: on recombinant human PEPD, the “PEPD inhibition (in words)” value was “inhibited PEPD and XPNPEP1 inhibitors similarly”; the half-inhibitory concentration (IC50) was determined as 0.67 µM. In addition, on XPNPEP1, the “XPNPEP1 inhibition (in words)” value is “inhibited PEPD and XPNPEP1 inhibitors similarly”; the IC50 was 122 µM. For the same compound, the “cell death in N/TERT-1 keratinocytes” value with N/TERT-1 keratinocytes was “Only VbP induced cell death”. In data set [1], the “de-esterification to CQ04 in cell culture” value is “completely de-esterified”.
